Experimental data: PMC5443346 (Bioorganic & medicinal chemistry, 2017)

Tested on: P. Falciparum 3D7
Assay: SYBR Green I growth inhibition assay, 3D7 strain
Assay type: cell-based
Conditions: Plasmodium falciparum, 3D7, 72 h, read-out: P. Falciparum 3D7 IC50

## CCN(CC)CCCC(C)Nc1ccnc2cc(Cl)ccc12 (stereo not shown) [Chloroquine, chloroquine]
  IC50: 52 ± 12 nM
